These results are taken from US20060040122A1, “Antimicrobial drywall” (Verichem, Inc., priority 2004, published 2006).

The subject of assay [1] is artificial bacterial consortium containing approximately equal numbers of six bacterial strains. In words: Synergism dose protocol: growth inhibition of a bacterial consortium in synthetic white water (O.D. 650 nm). In kind it is cell-based. Conditions: end point 50% inhibition of bacterial growth; pH 5.5; SI less than 1 = synergism. The method, then:
O-phenylphenol was tested in combination with DGH. The synergism of the blends was determined using a dose protocol. The combinations were evaluated in synthetic white water with pH value of 5.5. The materials were tested against an artificial bacterial consortium containing approximately equal numbers of six bacterial strains. Although the test strains are representative of organisms present in paper mill systems, the effect is not limited to these bacteria. Two of the strains were Kiebsiella pneumoia (ATCC 13883) and Pseudomonas aeruginosa (ATCC 15442). […] Optical density (O>D>) readings at 650 nm were taken initially (t0) and after 4 hours (t4) of incubation. […]
The inhibition values can be plotted versus dosage for each active and the particular blend. […] In the examples (tables) below, the 50 values are expressed as parts per million (ppm) of active material.
The synergism index (SI) was calculated by the equation below, which was proposed by F. C. […]
QA=quantity of compound A in mixture, producing the end point
Qa=quantity of compound A1 acting alone, producing the end point
QB=quantity of compound B in mixture, producing the end point
Qb=quantity of compound B1 acting alone, producing the end point If SI is less than 1, synergism exists; if SI is greater than 1, antagonism exists; if SI is equal to 1, an additive effect exists.

Another assay concerns Aspergillus niger. Kind of assay: Minimum Inhibitory Concentration synergy test on fungi (Kull et al procedure). Format: cell-based. An excerpt:
(§1) The procedure followed is adapted from and follows very closely, the procedure described in the Kull et al article. The concentrations listed in Table 1 are the Minimum Inhibitory Concentrations.
(§2) In Table 3, synergism test results are summarized for a 1:26 weight ratio of OPP:DGH against three molds, using the same test system as for Table 1
(§3) Synergism has also been shown for combinations of DGH and NaMetam (sodium methyldithiocarbamate). The Table 5 results were obtained in a manner similar to those of Table 1: […]

A further assay concerns Mixed inoculum. The description is as above. In kind it is cell-based.
Text: as §1, §2, §3

For the next assay, the system named is Penicillium pinophillum. The description is as above. In kind it is cell-based.
Text: as §1, §2, §3

For assay [2], the system named is Wild strain - Alternaria sp. Described as above. In kind it is cell-based.
Text: as §1, §2, §3

The subject of assay [3] is Aureobasidium pullulans ATCC 9348, Aspergillus niger ATCC 6275, Penicillium sp. ATCC 9849. In words: ASTM Test Method D-3273 00, resistance to surface mold fungi and mildew, in adhesives. Conditions: similar tests, same organisms; in Titebond Solvent Free Fast Grab FRP Adhesive and Titebond Solvent Free Subfloor Adhesive. An excerpt: In addition to experiments as described above, tests were made to compare combinations of DGH (dodecyl guanidine hydrochloride) and OPP against microorganisms known to generate what is commonly known as mildew, when used in caulking and/or adhesive materials used in bathtubs, showers and the like. ASTM (American Society for Testing Materials) Test Method D-3273 00, dealing with resistance to surface mold fungi and mildew was used. Generally, this is an accelerated test calling for a test chamber held at a relative humidity of 95 to 98% and a temperature of 32.5±1° C. (90±2° F.).
Five commercial adhesive compositions known to be susceptible to mildew growth were tested using the microorgainsms Aureobasidium pullulans ATCC 9348, Aspergillus niger ATCC 6275, Penicillium sp. ATCC 9849.
Following this test, a composition comprising 10 g of OPP and 30 g of dodecyl guanidine hydrochloride (DGH) was incorporated into samples of Titebond™ Professional Tub Surround Adhesive at concentrations of 150, 250, 500, 750, and 1000 ppm and the adhesive was tested in the same manner as in Table 2. At 28 days, all of the DGH/OPP compositions were rated at 10.

Where [4] appears, read: Table 1, Minimum Inhibitory Concentration.
The mark [5] stands for this setting: Table 1, Minimum Inhibitory Concentration, Mixed inoculum.
Setting [6] is: Table 1, Minimum Inhibitory Concentration, Penicillium pinophillum.
Setting [7] is: Table 3, Penicillum pinophillum.
Where [8] appears, read: Table 5, Penicillum pinophillum.
[9] abbreviates: Table 1, Minimum Inhibitory Concentration, Wild strain - Alternaria sp.
[10] abbreviates: Table 3, Wild strain - Atlernaria sp.
Setting [11] is: Table 5, Wild Strain - Alternaria sp.

Counter-ions that a name gives are not always drawn.

Take `CCCCCCCCCCCCNC(=N)N` [DGH, Dodecyl guanidine hydrochloride]: the “Synergy Index” value in assay [1] amounted to 1.00. The “Concentration of DGH alone” value in the assay with Aspergillus niger (setting [4]) came out at 62.5; in the assay with Mixed inoculum (setting [5]), 125; in the assay on Penicillium pinophillum (setting [6]), 62.5; in assay [2] (setting [9]) it was 125. For the same compound, the “DGH conc (ppm) alone” value is 62.5 ppm in the assay with Aspergillus niger (Table 3); 125 ppm in the assay with Mixed inoculum (Table 3, Mixed inoculum); 62.5 ppm in the assay on Penicillium pinophillum (setting [7]); 125 ppm in assay [2] (setting [10]). Moreover, the “Conc. Of DGH alone” value worked out at 62.5 with Aspergillus niger (Table 5); 62.5 in the assay on Mixed inoculum (Table 5, Mixed Inoculum); 62.5 with Penicillium pinophillum (setting [8]); 62.5 in assay [2] (setting [11]).
For `CNC(=S)[S-].[Na+]` [NaMetam, sodium methyldithiocarbamate], the “Conc of NaMetam alone” value in the assay with Aspergillus niger (Table 5) amounted to 31.2; in the assay on Mixed inoculum (Table 5, Mixed Inoculum) it was 250; in the assay with Penicillium pinophillum (setting [8]) it was 31.2; in assay [2] (setting [11]) it was 125.
For the compound `[Na+].[O-]c1ccccc1-c1ccccc1` [NaOPP, sodium orthophenylphenate], the “Synergy Index” value in assay [1] is recorded as 1.00.
Regarding `Oc1ccccc1-c1ccccc1` [OPP, o-phenylphenol], the “Concentration of OPP alone” value (with Aspergillus niger (setting [4]); with Mixed inoculum (setting [5]); with Penicillium pinophillum (setting [6]); in assay [2] (setting [9])) was 15.6 in each case. Also, the “OPP conc (ppm) alone” value with Aspergillus niger (Table 3) is 15.6 ppm; in the assay on Mixed inoculum (Table 3, Mixed inoculum), 15.6 ppm; with Penicillium pinophillum (setting [7]) it was 15.6 ppm; in assay [2] (setting [10]) it was 15.6 ppm.
With dodecyl guanidine acetate [DGA], the mildew inhibition result in assay [3] is on record as “effective mildew inhibitors”.
